Assay results as given in PubChem BioAssay AID1208 (EPA DSSTox, 2008).
Active and inactive are the calls of the source.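 Rule for the calls: active = at least one rat sex group has a carcinogenic potency value and tumor site recorded; inconclusive = only rat studies were judged inadequate by the national testing program; inactive = no potency or tumor site, with negative rat experiments.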 *1 amine or outer side, *2 acyl side, *3 side chain or, on linkers, in order; H or OH if unused. Where a SMILES comes first, the peptide text is derived from it. Bridges are numbered along the chain shown (N, C = ends). Roman numbers before positions name the chains, in order. [ ]: non-standard residue; d: D form. Actinocin(1to9) = Cc1c2oc3c(C)ccc(C(=O)[*:2])c3nc-2c(C(=O)[*:1])c(N)c1=O; d(aIle) = CC[C@H](C)[C@@H](N)C(=O)O; NMeV = CN[C@H](C(=O)O)C(C)C; Sar = CNCC(=O)O

Test system: rat chronic carcinogenicity bioassay, TD50
Test: DSSTox (CPDBAS) Carcinogenic Potency Database Summary Rat Bioassay Results
Conditions: for outcome: TD50_Rat_Note: no positive results; for Potency: stronger effect = lower value
Procedure, shortened: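 Chronic long-term rat cancer bioassays from literature and NCI/NTP, taking the most positive result per sex. TD50 in mmol converted to a 1–100 Activity Score from log10(1/TD50). Mixtures lacking TD50 scored 50.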

[1] = TargetSites_Rat_Female: no positive results

## OC[C@@H](O)[C@@H](O)[C@H](O)[C@H](O)CO
[1]
  outcome: inactive; no positive results

## Cc1ccc(Cc2cnc(NCCSCc3ccc(CN(C)C)o3)[nH]c2=O)cn1
TD50_Rat_Note: TD50 is harmonic mean of more than one positive test, TargetSites_Rat_Female: stomach
  Potency: 3360 mg/kg/day

## NC(=O)N(CC(=O)O)N=O
TD50_Rat_Note: TD50 is harmonic mean of more than one positive test, greater than ten-fold variation among TD50 values for positive res, TargetSites_Rat_Female: mammary gland, small intestine
  Potency: 4.31 mg/kg/day

## ClC(Cl)=C(Cl)C(Cl)=C(Cl)Cl
TD50_Rat_Note: TD50 is harmonic mean of more than one positive test, TargetSites_Rat_Female: kidney
  Potency: 65.8 mg/kg/day

## CC1CN(/N=C/c2ccc([N+](=O)[O-])o2)C(=O)N1 (centres undefined)
TargetSites_Rat_Female: mammary gland
  Potency: 5.34 mg/kg/day

## C=CCOCC1CO1 (centres undefined)
[1]
  outcome: inactive; no positive results

## COC(=O)C1=C(C)NC(C)=C(C(=O)OCC(C)(C)CN(C)Cc2ccccc2)C1c1cc([N+](=O)[O-])ccc1F (centres undefined)
[1]
  outcome: inactive; no positive results

## Clc1cnc(Oc2ccc(Oc3ncc(Cl)cc3Cl)cc2)c(Cl)c1
  outcome: inactive; no positive results

## NCCCCCC(=O)O
  outcome: inactive; no positive results

## CC(CCl)OC(C)CCl (centres undefined)
[1]
  outcome: inactive; no positive results

## Cc1ncc[nH]1
TD50_Rat_Note: TD50 is harmonic mean of more than one positive test, TargetSites_Rat_Female: thyroid gland
  Potency: 868 mg/kg/day

## O=CC1CO1 (centres undefined)
[1]
  outcome: inactive

## O=NN(CCCl)C(=O)N[C@@H]1[C@@H](O)[C@H](O)[C@@H](CO)O[C@@H]1O
TD50_Rat_Note: positive test results only by intraperitoneal or intravenous injection, TD50 is harmonic mean of more than one positive, TargetSites_Rat_Female: peritoneal cavity
  Potency: 0.0375 mg/kg/day

## O=[N+]([O-])c1ccc(NCCO)c(OCCO)c1
[1]
  outcome: inactive; no positive results

## Nc1ccc(N=Nc2ccccc2)c(N)n1
TD50_Rat_Note: TD50 is harmonic mean of more than one positive test, TargetSites_Rat_Female: large intestine
  Potency: 303 mg/kg/day

## CCN(CC)C(=S)S
[1]
  outcome: inactive; no positive results

## Nc1ccc(N)c2c1C(=O)c1c(N)ccc(N)c1C2=O
TD50_Rat_Note: TD50 is harmonic mean of more than one positive test, TargetSites_Rat_Female: urinary bladder
  Potency: 156 mg/kg/day

## OCl
[1]
  outcome: inactive; no positive results

## O=c1oc2c(O)c(O)cc3c(=O)oc4c(O)c(O)cc1c4c23
[1]
  outcome: inactive

## ClC1C2(Cl)C3C4C5OC5C5C4C1(Cl)C(Cl)(C53)C2(Cl)Cl (centres undefined)
[1]
  outcome: inactive; no positive results

## CC[C@H](C)[C@H]1NC(=O)[C@@H](NC(=O)c2c3nc4c(C(=O)N[C@@H]5C(=O)N[C@H](C(C)C)C(=O)N6CCC[C@H]6C(=O)N(C)CC(=O)N(C)[C@@H](C(C)C)C(=O)O[C@@H]5C)ccc(C)c4oc-3c(C)c(=O)c2N)[C@@H](C)OC(=O)[C@H](C(C)C)N(C)C(=O)CN(C)C(=O)[C@@H]2CCCN2C1=O (I: T[d(aIle)]P[Sar][NMeV] / II: T[dV]P[Sar][NMeV]; ester I:1-I:C, II:1-II:C; linker I:N-II:N via Actinocin(1to9))
  outcome: inactive; no positive results

## CCCCOC(=O)c1ccccc1C(=O)OCc1ccccc1
TargetSites_Rat_Female: no positive results- CPDB evaluation based on NCI Technical Report
  Potency: 1040 mg/kg/day

## CN(C)CCOC(c1ccccc1)c1ccccc1
[1]
  outcome: inactive; no positive results

## CC1(C)[C@@H](O)CC[C@]2(C)[C@H]3C(=O)C=C4[C@@H]5C[C@@](C)(C(=O)O)CC[C@]5(C)CC[C@@]4(C)[C@]3(C)CC[C@@H]12
  outcome: inactive; no positive results

## CCc1ccc(C(c2ccc(CC)cc2)C(Cl)Cl)cc1
[1]
  outcome: inactive; no positive results

## CN(N=O)c1ccccc1
TD50_Rat_Note: TD50 is harmonic mean of more than one positive test, harmonic mean of TD50 includes a value for upper 99% confidence li, TargetSites_Rat_Female: esophagus
  Potency: 0.142 mg/kg/day

## [O]=[Bi]
TargetSites_Rat_BothSexes: no positive results
  outcome: inactive

## CCN(CC(F)(F)F)N=O
  Potency: 2.52 mg/kg/day

## CCNC(=O)N(CCN(C)C)N=O
TargetSites_Rat_Female: mammary gland, uterus
  Potency: 0.704 mg/kg/day

## CN(N=O)C(=O)Nc1nc2ccccc2s1
TargetSites_Rat_BothSexes: stomach
  Potency: 1.13 mg/kg/day

## NC(=O)CI
  outcome: inactive; no positive results

## COC(=O)C(C)(C)Oc1ccc(-c2ccc(Cl)cc2)cc1
TD50_Rat_Note: TD50 is harmonic mean of more than one positive test, harmonic mean of TD50 includes a value for upper 99% confidence li, TargetSites_Rat_Female: liver
  Potency: 4.78 mg/kg/day

## CCN(Cc1cccc(S(=O)(=O)O)c1)c1ccc(C(=C2C=CC(=[N+](CC)Cc3cccc(S(=O)(=O)[O-])c3)C=C2)c2ccccc2)cc1
TD50_Rat_Note: TD50 is harmonic mean of more than one positive test, TargetSites_Rat_Female: liver, TargetSites_Rat_BothSexes: hematopoietic system
  Potency: 6060 mg/kg/day

## CCn1cc(C(=O)O)c(=O)c2cc3c(cc21)OCO3
[1]
  Potency: 167 mg/kg/day
